Data taken from patent US10815264B2, “Nucleotides for the treatment of cancer” (IDENIX PHARMACEUTICALS LLC, priority 2015, dated 2020).
Like-named read-outs stand apart in the source and are kept apart here.

Assays:
[1] = test system: live leukemic cells of AML patient samples (bone marrow or peripheral blood); assay: Ex-vivo effect on AML patient samples, depletion of live leukemic cells by flow cytometry; assay type: cell-based, human; conditions: plates incubated for 48 hours
Experimental: Patient samples were obtained from a non-interventional and prospective study. The study included samples from adult patients over 18 years of age who were diagnosed with Acute Myeloid Leukemia (AML).
In one embodiment, the method of data acquisition was performed as follows: on day 1 bone marrow (BM) or peripheral blood (PB) patient sample was received. A small part was separated from the rest of the sample for validation, while the majority of the sample was diluted with culture media and plated into 96-well plates previously prepared with the desired compounds and compound combinations, e.g., a compound or compound combination described herein. The number of live leukemic cells seeded in each well was fixed between 8000 and 32000, depending on the percentage of leukemic cells for each sample. […] Antibodies were added to identify leukemic cells using a gating strategy based on FSC/SSC and expression or lack of expression of different surface markers. The monoclonal antibodies selection was performed to optimize the identification of leukemic cell in each sample.
In one embodiment, non-limiting examples of biomarkers such as the biomarkers CD34, CD45, CD117, and HLADR known as “backbone markers” for AML (van Dongen, J. J. and A. Orfao, EuroFlow: Resetting leukemia and lymphoma immunophenotyping. Basis for companion diagnostics and personalized medicine, Leukemia, 2012, 26, 1899-907) were included in the combination.
In one embodiment, antibody combinations such as CD117/CD45, CD34/CD45, and HLADR/CD45 were used. Live leukemic cells were identified by their light scatter properties (FSC^int/hi/SSC^int) in the absence of Annexin-V-FITC staining. FSC/SSC selection was performed to exclude debris. The average percentage of cell viability upon receipt of the sample was 80% and samples were only processed if the viability was greater than 50%.
In one embodiment, sample validation was performed as follows: BM and PB samples were extracted under sterile conditions and received in the laboratory within 24 hours of extraction. Initial analysis evaluated the number of pathological cells and their viability. Different volumes of sample (1 μL, 3 μL, 5 μL and 7 μL) were aliquoted in duplicate into a 96-well plate. To lyse red blood cells, 180 μL of ammonium chloride lysis solution was added to each well (2 g KHCO3, 16.58 g NH4Cl, 0.074 g Na2EDTA.2H2O, H2O to 1 L). Following a 10 min incubation period at 4° C., plate was centrifuged for 5 min at 1200 rpm and the supernatant removed. The lysis step was performed twice. To analyze, 20 μL of a combination of Annexin V-FITC (Immunostep, Salamanca, Spain), binding buffer (BB, 2.4 g HEPES, 8.19 g NaCl, 0.37 g Cl2Ca, H2O to 1 L), and the following monoclonal antibodies (mAb) were added to each well: CD117 (clone 104D2)-PE (Becton Dickinson, San Jose, Calif., US), CD34 (clone 581)-PerCP (BioLegend, San Diego, Calif., US), HLADR (clone L243)-PB (BioLegend) and CD45 (HI30)-PO (Life Technologies, Carlsbad, Calif., US) (van Dongen, J. J., et al., EuroFlow antibody panels for standardized n-dimensional flow cytometric immunophenotyping of normal, reactive and malignant leukocytes, Leukemia, 2012, 26, 1908-75). After 15 min of incubation at room temperature in the dark, a wash step was performed using binding buffer solution. The pellet was resuspended in 30 μL BB for analysis in Vivia's ExviTech© platform. Cell count and viability upon arrival were computed and the optimal volume of sample to use per well was determined.
In one embodiment, the assay was performed according to following method: the whole sample was diluted with RPMI 1640, supplemented with 20% (v/v) FBS (Thermo Scientific, Waltham, Mass., US), 2% HEPES, 1% antibiotic (Zell Shield, Labclinics, Barcelona, Spain) and 1% L-glutamine 200 mM (Lonza, Hopkinton, Mass., US) to a final volume of 60 μL per well. […]

A498 = assay: In vitro inhibition, CellTiter-Glo (CTG) assay, 72 hr exposure; assay type: cell-based
Experimental: (§1) Cells were grown in RPMI-1640 supplemented with L-Glutamine and 10% FBS of the following cell lines:
(§2) CCRF-CEM; CCRF-CEM-cytarabine resistant; HL-60; K562; CFPAC-1; MiaPACA-2; BxPC-3; PANC-1; HepG2; MDA-MB-231; HCT-116; A498; and NCI-H69
(§3) 18, 96 well plates of each cell line were seeded with the optimized number of cells per well in a total volume of 50 μL per well. The plates were left overnight. Plate wells were seeded with 100 μL media for media control. The following day, cells were exposed to test compounds as described below. At the same time as drug exposure, a CTG assay was conducted on the 18th plate for the 0 hr count.
(§4) The compounds were added to cells and medium already on the plate to give desired final concentrations. 50 μL media were added to cell control wells, and 50 μL of mix added to vehicle control wells. 10 μM Doxorubicin was added to appropriate wells. Cells exposed to test compound were incubated at 37° C. for 72 hr followed by a CTG assay.
(§5) At the end of the 72 hr exposure period, plates were removed for a CellTiter-Glo (CTG) assay from a 37° C., 5% CO2 incubator and placed on the bench at room temperature for 30 mins. 100 μL of CellTiter-Glo reagent was added and mixed for 2 mins, followed by a further 10 min incubation at room temperature. Luminescence was recorded using Synergy 4.0.

BxPC-3 = assay: as above; assay type: cell-based
Experimental: as §1, §2, §3, §4, §5

[2] = test system: CCRF-CEM-cytarabine resistant; assay: as above; assay type: cell-based
Experimental: as §1, §2, §3, §4, §5

CCRF-CEM = assay: as above; assay type: cell-based
Experimental: as §1, §2, §3, §4, §5

CFPAC-1 = assay: as above; assay type: cell-based
Experimental: as §1, §2, §3, §4, §5

HCT-116 = assay: as above; assay type: cell-based
Experimental: as §1, §2, §3, §4, §5

HL-60 = assay: as above; assay type: cell-based
Experimental: as §1, §2, §3, §4, §5

HepG2 = assay: as above; assay type: cell-based
Experimental: as §1, §2, §3, §4, §5

K562 = assay: as above; assay type: cell-based; conditions: K562, 72 hr
Experimental: as §1, §2, §3, §4, §5

MDA-MB-231 = assay: as above; assay type: cell-based; conditions: MDA-MB-231, 72 hr
Experimental: as §1, §2, §3, §4, §5

MiaPACA-2 = assay: as above; assay type: cell-based
Experimental: as §1, §2, §3, §4, §5

NCI-H69 = assay: as above; assay type: cell-based
Experimental: as §1, §2, §3, §4, §5

PANC-1 = assay: as above; assay type: cell-based; conditions: PANC-1, 72 hr
Experimental: as §1, §2, §3, §4, §5

[3] = Homo sapiens, MIA PaCa-2, MiaPACA-2, 72 hr

## CC(=O)OC[C@H](C)NP1(=O)OC[C@H]2S[C@@H](n3ccc(N)nc3=O)[C@@H](O)C2O1 (some centres unmarked)
[1]; Homo sapiens, 48 h
  EC50: ≥ 20 µM
  Emax: > 20%

## Cn1c(COP(=O)(NCc2ccccc2)O[C@H]2[C@H](O)[C@H](n3ccc(N)nc3=O)S[C@@H]2CO)cnc1[N+](=O)[O-] (mixture of isomers) [Compound 106b (mixture of diastereoisomers), 4-amino-1-[(2R,3S,4S,5R)-4-[(benzylamino)-[(3-methyl-2-nitro-imidazol-4-yl)methoxy]phosphoryl]oxy-3-hydroxy-5-(hydroxymethyl)tetrahydrothiophen-2-yl]pyrimidin-2-one]
A498; Homo sapiens, A498, 72 h
  IC50: 10 to 100 µM
BxPC-3; Homo sapiens, BXPC-3, 72 h
  IC50: 10 to 100 µM
[2]
  IC50: 10 to 100 µM
CCRF-CEM; Homo sapiens, 72 h
  IC50: 10 to 100 µM
CFPAC-1; Homo sapiens, CFPAC-1, 72 h
  IC50: 10 to 100 µM
HCT-116; Homo sapiens, HCT-116, 72 h
  IC50: 10 to 100 µM
HL-60; Homo sapiens, HL-60, 72 h
  IC50: 10 to 100 µM
HepG2; Homo sapiens, HepG2, 72 h
  IC50: 10 to 100 µM
K562; Homo sapiens
  IC50: 10 to 100 µM
MDA-MB-231; Homo sapiens
  IC50: 10 to 100 µM
MiaPACA-2; [3]
  IC50: 10 to 100 µM
NCI-H69; Homo sapiens, NCI-H69, 72 h
  IC50: 10 to 100 µM
PANC-1; Homo sapiens
  IC50: 10 to 100 µM

## CC(C)OC(=O)[C@H](C)NP(=O)(OC[C@H]1S[C@@H](n2ccc(N)nc2=O)[C@@H](O)[C@@H]1O)Oc1ccccc1 (single isomer, unassigned) [Compound 101b (diastereoisomer 1)]
A498; Homo sapiens, A498, 72 hr
  IC50: 10 to 100 µM
BxPC-3; BxPC-3, 72 hr
  IC50: 10 to 100 µM
[2]
  IC50: 10 to 100 µM
CCRF-CEM
  IC50: < 1 µM
CFPAC-1; CFPAC-1, 72 hr
  IC50: 10 to 100 µM
HCT-116; HCT-116, 72 hr
  IC50: 10 to 100 µM
HL-60; HL-60, 72 hr
  IC50: 1 to 10 µM
HepG2; HepG2, 72 hr
  IC50: 10 to 100 µM
K562
  IC50: 10 to 100 µM
MDA-MB-231; Homo sapiens
  IC50: 10 to 100 µM
MiaPACA-2; MiaPACA-2, 72 hr
  IC50: 10 to 100 µM
NCI-H69; Homo sapiens, NCI-H69, 72 hr
  IC50: 10 to 100 µM
PANC-1; Homo sapiens
  IC50: 10 to 100 µM

## CC(C)OC(=O)[C@H](C)NP(=O)(OC[C@H]1S[C@@H](n2ccc(N)nc2=O)[C@@H](O)[C@@H]1O)Oc1ccccc1 (single isomer, unassigned) [Compound 101b (diastereoisomer 2)]
A498; A498, 72 hr
  IC50: 10 to 100 µM
BxPC-3; Homo sapiens, BxPC-3, 72 hr
  IC50: 10 to 100 µM
[2]
  IC50: 1 to 10 µM
CCRF-CEM; Homo sapiens
  IC50: < 1 µM
CFPAC-1; Homo sapiens, CFPAC-1, 72 hr
  IC50: 10 to 100 µM
HCT-116; HCT-116, 72 hr
  IC50: 1 to 10 µM
HL-60; Homo sapiens, HL-60, 72 hr
  IC50: 1 to 10 µM
HepG2; HepG2, 72 hr
  IC50: 1 to 10 µM
K562; Homo sapiens
  IC50: 10 to 100 µM
MDA-MB-231
  IC50: 10 to 100 µM
MiaPACA-2; MiaPACA-2, 72 hr
  IC50: 1 to 10 µM
NCI-H69; NCI-H69, 72 hr
  IC50: 10 to 100 µM
PANC-1
  IC50: 10 to 100 µM

## CCOC(=O)COP(=O)(N[C@@H](CC(C)C)C(=O)OCC)OC[C@H]1S[C@@H](n2ccc(N)nc2=O)[C@@H](O)[C@@H]1O (single isomer, unassigned) [Compound 102b (diastereoisomer 1)]
A498; Homo sapiens, A498, 72 h
  IC50: 10 to 100 µM
BxPC-3; Homo sapiens, BXPC-3, 72 h
  IC50: 10 to 100 µM
[2]
  IC50: 10 to 100 µM
CCRF-CEM; Homo sapiens, 72 h
  IC50: < 1 µM
CFPAC-1; Homo sapiens, CFPAC-1, 72 h
  IC50: 10 to 100 µM
HCT-116; Homo sapiens, HCT-116, 72 h
  IC50: 10 to 100 µM
HL-60; Homo sapiens, HL-60, 72 h
  IC50: 1 to 10 µM
HepG2; HepG2, 72 hr
  IC50: 1 to 10 µM
K562; Homo sapiens
  IC50: 10 to 100 µM
MDA-MB-231; Homo sapiens
  IC50: 10 to 100 µM
MiaPACA-2; [3]
  IC50: 10 to 100 µM
NCI-H69; Homo sapiens, NCI-H69, 72 h
  IC50: 10 to 100 µM
PANC-1; Homo sapiens
  IC50: 10 to 100 µM

## CC(C)OC(=O)[C@H](C)NP(=O)(OC[C@H]1S[C@@H](n2ccc(N)nc2=O)[C@@H](O)[C@@H]1O)Oc1ccccc1 (single isomer, unassigned) [drawing 47]
[1]; Homo sapiens, 48 h
  EC50: ≥ 20 µM
[1]; Homo sapiens
  Emax: 0 to 10%

## CC(C)OC(=O)[C@H](C)NP(=O)(OC[C@H]1S[C@@H](n2ccc(N)nc2=O)[C@@H](O)[C@@H]1O)Oc1ccccc1 (single isomer, unassigned) [drawing 48]
[1]
  EC50: 10 to 20 µM
  Emax (%): A (A=0-10%)

## CCOC(=O)COP(=O)(N[C@@H](CC(C)C)C(=O)OCC)OC[C@H]1S[C@@H](n2ccc(N)nc2=O)[C@@H](O)[C@@H]1O (single isomer, unassigned) [drawing 50]
[1]
  EC50: 10 to 20 µM
